Values of other authors in patent US20040019096A1, “Novel formulations of carvedilol” (priority 2003, published 2004).

Settings: immediate release formulation

absorption following oral administration: rapidly and extensively absorbed
terminal elimination half-life (oral administration): 7 to 10 h
SMILES: COc1ccccc1OCCNCC(O)COc1cccc2[nH]c3ccccc3c12 (centres unmarked) [carvedilol]
